Results: US20180346502A1, “Processes for the Preparation of SGLT-2 Inhibitors, Intermediates Thereof” (Emmennar Pharma Private Limited, priority 2017, published 2018)

Test: Storage stability of amorphous empagliflozin at 5±3°C (HPLC chemical purity, PXRD)
Format: physicochemical
Settings: for Chemical Purity (HPLC) / PXRD: Temp = 5 ± 3° C.
Protocol: • (a) (1S)-1,5-anhydro-1-C-[4-chloro-3-[[4-[[(3S)-tetrahydro-3-furanyl]oxy]phenyl]methyl]phenyl]-D-glucitol, i.e., empagliflozin (amorphous) • Apparatus: A liquid chromatographic system is to be equipped with variable • wavelength UV-Detector and Integrator. • Column: Promosil C18, 250×4.6 mm, 100 A°, 5 μm or equivalent • Column Temperature: 40° C. • Wavelength: 225 nm • Flow rate: 1.2 mL/min • Injection volume: 5 μL • Run Time: 60 min • Elution: Gradient • Diluent: Acetonitrile: Water (50:50 v/v) • Mobile phase A: Buffer solution • Mobile phase B: Acetonitrile: Water (95:5 v/v) • Buffer solution: Transfer accurately about 1 mL of ortho phosphoric acid into 1000 mL of milli-Q water, filter through 0.45 μm nylon membrane and sonicate to degas. • (b) Amorphous solid dispersion of empagliflozin and ethyl cellulose (EC) • Chromatographic conditions are same as given under (a). • (c) Amorphous solid dispersion of empagliflozin and hydroxypropyl cellulose (HPC) • Chromatographic conditions are same as given under (a), except for: • Wavelength: 220 nm • Column temperature: 35° C. • Mobile Phase B: Acetonitrile: Water (90:10 v/v) • (d) (1S)-1,5-anhydro-1-C-[4-chloro-3-[(4-ethoxyphenyl)methyl] phenyl]-D-glucitol i.e., dapagliflozin • Chromatographic conditions are same as given under (a), except for: • Column temperature: 35° C. • Run Time: 55 min • Mobile Phase B: Acetonitrile: Water (90:10 v/v)
The diffraction patterns were measured using Bruker D2 PHASER diffractometer equipped with LYNXEYE™ detector, used radiation Cu Kα (λ=1.54060 Å), excitation voltage: 30 kV, anode current: 10 mA, measured range: 3-40° 2θ, increment: 0.01° 2θ.

SMILES: OC[C@H]1O[C@@H](c2ccc(Cl)c(Cc3ccc(O[C@H]4CCOC4)cc3)c2)[C@H](O)[C@@H](O)[C@@H]1O [Empagliflozin, (1S)-1,5-anhydro-1-C-[4-chloro-3-[[4-[[(3S)-tetrahydro-3-furanyl]oxy]phenyl]methyl]phenyl]-D-glucitol]
- Chemical Purity (HPLC) (Stability period 1 month): 99.90
- PXRD (Stability period 1 month): Amorphous
- Chemical Purity (HPLC) (Stability period 3 months): 99.88
- PXRD (Stability period 3 months): Amorphous
- Chemical Purity (HPLC) (Stability period 6 months): 99.89
- PXRD (Stability period 6 months): Amorphous
- Chemical Purity (HPLC) (Stability period 12 months): 99.88
- PXRD (Stability period 12 months): Amorphous
- Chemical Purity (HPLC) (Stability period Initial): 99.88
- PXRD (Stability period Initial): Amorphous
- stable on storage (period) (storage at 5±3° C.): 12 months
